Reference: patent US12138320B2, “Composition and methods for tumor imaging and treatment” (The University of Chicago, priority 2020, dated 2024)

How the values were obtained:
[1] = biological target: T1, NCEH1 (Homo sapiens, UniProt Q6PIU2); assay: Gel-based competitive ABPP (FP-Rho) of cancer cells treated in situ (live cells); type: cell-based; conditions: for potency against NCEH1 compared to JW199: MDA-MB231 cells treated in situ, 0-25 μM (FIG. 5B)
T1 construct: serine hydrolase activity in membrane proteome fractions of MDA-MB231 breast cancer cells treated with the indicated concentrations; endogenous in cells; host or cells: PC3 prostate cancer cells; MDA-MB231 breast cancer cells
T1 sequence (Q6PIU2 1-408): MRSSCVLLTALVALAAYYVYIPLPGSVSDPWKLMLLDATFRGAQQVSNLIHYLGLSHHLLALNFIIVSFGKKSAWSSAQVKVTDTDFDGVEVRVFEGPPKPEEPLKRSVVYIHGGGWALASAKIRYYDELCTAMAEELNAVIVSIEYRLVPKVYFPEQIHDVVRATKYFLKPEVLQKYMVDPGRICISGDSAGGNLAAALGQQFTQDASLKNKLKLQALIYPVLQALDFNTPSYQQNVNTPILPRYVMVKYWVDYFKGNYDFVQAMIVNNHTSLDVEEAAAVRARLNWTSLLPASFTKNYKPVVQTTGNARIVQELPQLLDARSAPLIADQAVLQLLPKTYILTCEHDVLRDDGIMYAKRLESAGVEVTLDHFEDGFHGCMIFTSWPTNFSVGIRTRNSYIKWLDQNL
Description: (§1) Proteome Preparation: Human PC3 and MDA-MB231 cells were grown in Roswell Park Memorial Institute (RPMI) medium and Dulbecco's Modified Eagle Medium (DMEM), respectively, supplemented with 10% fetal bovine serum (FBS) and 2 mM L-glutamine, and cultured in a humidified 5% CO2 incubator at 37° C. Cells were washed twice with phosphate buffered saline (PBS, pH 7.5), collected by scraping, resuspended in 0.2 ml PBS, sonicated, and fractionated via centrifugation (100,000×g, 45 min) into a pellet (containing membrane proteins) and supernatant (containing soluble proteins). For murine proteomes, mouse tissues were Dounce-homogenized on ice in cold PBS, followed by a low-speed spin (1,400×g, 5 min) to remove debris. After sonication, the membrane and soluble proteomes were fractionated as described above. All sample pellets were washed and resuspended in PBS via sonication. Protein concentrations were determined using a Bradford protein assay kit (Bio-Rad, Hercules, California, United States of America)). Samples were stored at −80° C. until use.
Cellular JW199 Treatments: JW199 was dissolved in dimethyl sulfoxide (DMSO) vehicle, which was diluted into media or buffer before addition to cells or proteomes, respectively. For in vitro proteome experiments, the final DMSO concentration was 4%. For live cell (in situ) treatments, 2×10^6 cells were seeded in 6 cm dishes (100% confluency) 24 hours prior to JW199 treatment in serum-free media. At the end of the experiment, cells were washed and collected, as described above, for gel-based activity profiling.
Gel-based Activity Profiling: Cell lysates were treated with 1 μM fluorophosphonate-rhodamine (FP-rho) for 30 min at room temperature (50 μL total reaction volume). Reactions were quenched with one volume of standard 4× sodium dodecyl sulfate/polyacrylamide gel electrophoresis (SDS/PAGE) reducing sample buffer, resolved on 10% acrylamide SDS/PAGE gels, and visualized in-gel with a fluorescence scanner sold under the tradename CHEMIDOC™ MP (Bio-Rad, Hercules, California, United States of America). Densitometric quantification of band intensities were used to calculate the percent inhibition via JW199. 50% inhibitory concentration (IC50) values were determined from dose-response curves constructed in GraphPad Prism software from three independent replicates for each inhibitor concentration. For competitive ABPP with JW576, tumor lysates were treated with 1 μM JW576 for 30 min at 37° C. (50 μL total reaction volume). Competitive ABPP was then conducted as described above. NCEH1 activity was calculated by densitometric quantification (ImageJ software; National Institutes of Health (NIH), Bethesda, Maryland, United States of America) of JW576-labeled band intensity (BODIPY fluorescence) from three independent replicates.

[2] = biological target: T2, NCEH1 (Mus musculus, UniProt Q8BLF1); assay: Gel-based competitive ABPP of murine tissue membrane proteomes after JW480 pre-treatment; type: in vivo; conditions: JW480 80 mg/kg; brain, heart, kidney, lung, liver, spleen membrane proteomes
T2 construct: For murine proteomes, mouse tissues were Dounce-homogenized on ice in cold PBS; from tissue; host or cells: athymic nude mice: heart, kidney, lung, liver, brain, spleen and other organs
T2 sequence (Q8BLF1 1-408): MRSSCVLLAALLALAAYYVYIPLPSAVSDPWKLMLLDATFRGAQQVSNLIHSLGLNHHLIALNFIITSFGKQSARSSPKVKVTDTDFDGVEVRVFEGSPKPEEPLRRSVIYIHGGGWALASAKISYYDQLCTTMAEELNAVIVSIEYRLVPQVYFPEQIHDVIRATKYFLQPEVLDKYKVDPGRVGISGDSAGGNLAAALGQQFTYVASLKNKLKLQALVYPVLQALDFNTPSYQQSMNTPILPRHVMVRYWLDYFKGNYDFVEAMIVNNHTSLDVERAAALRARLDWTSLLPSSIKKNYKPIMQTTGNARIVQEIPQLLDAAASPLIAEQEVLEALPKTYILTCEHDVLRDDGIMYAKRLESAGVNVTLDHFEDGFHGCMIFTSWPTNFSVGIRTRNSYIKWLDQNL
From the text: FIGS. 9A and 9B: Gel-based competitive activity-based protein profiling (ABPP) profiles of several murine membrane proteomes following treatment with fluorine-18-labeled 2-isopropylphenyl-(4-(2-fluoroethoxy)phenethyl)carbamate ([^18F]JW199) with and without 2-isopropylphenyl)-(2-(naphthalen-2-yl)ethyl)carbamate (JW480; 80 milligrams per kilogram (mg/kg)). FIG. 9A is a schematic drawing showing the chemical structure of JW480. FIG. 9B is a composite gel image of the ABPP profiles of the murine membrane proteomes from brain, heart, kidney, lung, liver and spleen following treatment with [^18F]JW199 with or without JW480.
Proteome Preparation: Human PC3 and MDA-MB231 cells were grown in Roswell Park Memorial Institute (RPMI) medium and Dulbecco's Modified Eagle Medium (DMEM), respectively, supplemented with 10% fetal bovine serum (FBS) and 2 mM L-glutamine, and cultured in a humidified 5% CO2 incubator at 37° C. […] Protein concentrations were determined using a Bradford protein assay kit (Bio-Rad, Hercules, California, United States of America)). […]
Gel-based Activity Profiling: Cell lysates were treated with 1 μM fluorophosphonate-rhodamine (FP-rho) for 30 min at room temperature (50 μL total reaction volume). […] Densitometric quantification of band intensities were used to calculate the percent inhibition via JW199. […]

[3] = biological target: T2, NCEH1; assay: In vivo competition: oral JW480 pre-treatment, then i.v. [18F]JW199 and PET-CT
Description: In vivo microPET/CT imaging: All imaging was performed by the Integrated Small Animal Imaging Research Resource (iSAIRR) at the University of Chicago (Chicago, Illinois, United States of America) on a β-Cube and X-Cube (Molecubes NV, Ghent, Belgium). Athymic nude mice (males and females, aged 6 to 8 weeks; HSD strain, Harlan-Envigo, Indianapolis, Indiana, United States of America) were anesthetized via inhalation with 1.5-2% isoflurane and injected with approximately 150 μCi (5.55 Megabecquerel (MBq)) of [^18F]JW199 in 150 μL of physiologic saline through the lateral tail vein, followed by awake incubation for 1 hour and 45 minutes. MicroCT images were acquired using the general purpose protocol, with energy of 50 KeV and a tube current of 100 μA. Respiration rate and body temperature of the animal were constantly monitored during the entire scanning period with the p-Cube and X-Cube onboard monitoring system. A 1 hr dynamic PET acquisition was started 2 hours after [^18F]JW199 injection. Dynamic reconstruction was performed for 6 frames of 10 minutes each using a three-dimensional (3D) OSEM algorithm with 400 μm isometric voxel size. For competition studies, mice were pretreated with either 80 mg/kg JW480 or vehicle (polyethylene glycol 300 (PEG300)) via oral gavage, followed 4 hours later by dosing with [^18F]JW199 and imaging as described. For the MDA-MB231 study, [^18F]JW199 injection was followed immediately by dynamic PET acquisition (90 min) and microCT scanning as detailed above. Dynamic PET image reconstruction included 9 frames of 10 minutes each.
Dynamic reconstruction was performed using a three-dimensional OSEM algorithm with 400 μm isometric voxel size. […] 3D regions of interest (ROIs) were drawn and standardized uptake values (SUVs) and percent injected dose per cubic centimeter of tissue (% ID/cc) were calculated for each ROI and time point. % ID/cc was calculated as a ratio of tissue radioactivity concentration (mCi/g) at time of scan to total injected activity (millicurie (mCi)) at time of scan.

[4] = tested on: other detected serine hydrolase targets; assay: Family-wide gel-based profiling of serine hydrolases in MDA-MB231 and PC3 cells (selectivity); type: cell-based, human; conditions: live cells
Description: as §1, with “For murine proteomes, mouse tissues were Dounce-homogenized on ice in cold PBS, followed by a low-speed spin (1,400×g, 5 min) to remove debris. After sonication, the membrane and soluble proteomes were fractionated as described above. All sample pellets were washed and resuspended in PBS via sonication.” left out, “Samples were stored at −80° C. until use.” left out
Gel-based Activity Profiling: Cell lysates were treated with 1 μM fluorophosphonate-rhodamine (FP-rho) for 30 min at room temperature (50 μL total reaction volume). Reactions were quenched with one volume of standard 4× sodium dodecyl sulfate/polyacrylamide gel electrophoresis (SDS/PAGE) reducing sample buffer, resolved on 10% acrylamide SDS/PAGE gels, and visualized in-gel with a fluorescence scanner sold under the tradename CHEMIDOC™ MP (Bio-Rad, Hercules, California, United States of America). Densitometric quantification of band intensities were used to calculate the percent inhibition via JW199. […]

## CC(C)c1ccccc1OC(=O)NCCc1ccc(OCCCF)cc1 [JW245, 2-isopropylphenyl-(4-(3-fluoropropoxy)phenethyl)carbamate]
[1]
  potency against NCEH1 compared to JW199: less potent

## CC(C)c1ccccc1OC(=O)NCCc1ccc2ccccc2c1 [JW480, 2-isopropylphenyl-(2-(naphthalen-2-yl)ethyl)carbamate]
[2]
  inhibition of NCEH1 in tissues of pre-treated mice: specific and significant inhibition
[3]; JW480 80 mg/kg oral, 4 hours before tracer
  effect of pre-treatment on radioactivity in urine and brain: slightly elevated radioactivity
[3]; JW480 80 mg/kg oral, 4 hours before tracer, 3 hours post injection
  effect of pre-treatment on [18F]JW199 radiotracer signal in heart, lung and kidney: significantly diminished radiotracer signal
[3]; JW480 oral, then i.v. tracer
  [18F]JW199 accumulation in kidneys and heart of competitor-treated mouse (PET-CT images): visibly decreased

## CC(C)c1ccccc1OC(=O)NCCNC(=O)c1ccc2cc(OCCF)ccc2c1 [JW291, 2-isopropylphenyl (2-(6-(2-fluoroethoxy)-2-naphthamido)ethyl)carbamate]
[1]
  potency against NCEH1 compared to JW199: less potent

## CC(C)c1ccccc1OC(=O)NCCc1ccc(OCCF)cc1 [JW199, 2-isopropylphenyl-(4-(2-fluoroethoxy)phenethyl)carbamate]
[1]; in situ, MDA-MB231 and PC3 cells
  IC50 values, inhibition of NCEH1 in live cells: low nM range
[4]
  selectivity over other detected serine hydrolase targets: > 1,000 fold
